Earlier results, collected in patent publication EP1921109A2, “Grafted cyclodextrin” (Cellresin Technologies, LLC, priority 2004, dated 2005).

Conditions: not given

Row | Compound | Flavor Threshold ppb in Water [ppb] | Odor Threshold ppb in Water [ppb]
1 | CCCCCCCC=O [Octanal] | 0.52 | 1.41
2 | CC1=CCC(C(C)(C)O)CC1 (stereo not drawn) [α-Terpineol] | 300 | 280
3 | C=CC(C)(O)CCC=C(C)C (centres unmarked) [Linalool] | 3.8 | 5.3
4 | CCCCCC=O [Hexanal] | 3.66 | 9.18
5 | C=C(C)[C@H]1CC=C(C)CC1 [Limonene] | 210 | 60
6 | CC(C)=CCC/C(C)=C/C=O [Geranial] | 40.0 | 
7 | CCCCCCCCCC=O [Decanal] | 1.07 | 0.53
8 | CC1=CCC2CC1C2(C)C (stereo not drawn) [α-Pinene] | 1014 | 9.5
9 | C=CC(=C)CCC=C(C)C [β-Myrcene] | 42 | 36
10 | CCCC(=O)OCC [Ethyl butyrate] | 0.13 | 0.13
11 | CC(C)=CCC/C(C)=C\C=O [Neral] | 41.4 | 85

Conditions: aqueous solutions

Row | Compound | Concentrations of TCA detected in untrained panels
12 | COc1c(Cl)cc(Cl)cc1Cl [TCA, 2,4,6-trichloroanisole] | 20 - 30 ppt

Same assay, conditions: aqueous solutions; as low as

Row | Compound | Concentrations of TCA detected by trained panels
13 | COc1c(Cl)cc(Cl)cc1Cl [TCA, 2,4,6-trichloroanisole] | 5 - 10 ppt
